Literature values in patent EP0668291A2, “Mammalian augmenter of liver regenerating and variants thereof” (Toyo Boseki Kabushiki Kaisha, priority 1994, dated 1995).

Tested on: hepatocytes
Details: earlier work

N[C@@H](Cc1cc(I)c(Oc2ccc(O)c(I)c2)c(I)c1)C(=O)O [thyroxin T3, tri-iodothyronine]
hepatotrophic effect: weakly hepatotrophic
